These results are taken from patent US20250352508A1, “PREVENTION AND TREATMENT OF POST-ACUTE INFECTION SYNDROMES” (InflammX Therapeutics, Inc., priority 2024, published 2025).

The target of one series is Panx1 channel (Homo sapiens, UniProt Q96RD7). The conditions noted are these: cited from earlier work.
A further series has as its system Cx43 hemichannel. Conditions: glioma cells; read-out: IC50 (half maximal inhibitory concentration) for the inhibition of ATP release; cited from earlier work.
For the next series, the target named is gap junction (Homo sapiens, UniProt P17302). Conditions: cited from earlier work.
Sequence of gap junction (P17302 whole entry): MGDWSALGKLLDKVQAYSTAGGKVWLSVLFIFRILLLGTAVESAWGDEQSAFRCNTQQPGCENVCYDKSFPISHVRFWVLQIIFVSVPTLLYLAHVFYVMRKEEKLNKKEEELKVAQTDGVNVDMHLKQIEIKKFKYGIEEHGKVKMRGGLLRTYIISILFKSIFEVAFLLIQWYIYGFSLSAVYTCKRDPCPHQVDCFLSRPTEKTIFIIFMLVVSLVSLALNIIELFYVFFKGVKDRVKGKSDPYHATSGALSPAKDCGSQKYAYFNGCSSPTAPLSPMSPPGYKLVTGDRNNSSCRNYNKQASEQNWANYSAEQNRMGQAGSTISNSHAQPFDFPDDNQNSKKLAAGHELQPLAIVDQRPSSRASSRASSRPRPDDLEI
Another series addresses gap junctions (Homo sapiens, UniProt P08034). Set-up: dose or concentration left out as unconfirmed. Conditions: cited from earlier work.
The subject of a further series is NLRC4 inflammasome. The conditions noted are these: cited from earlier work.
The target in the next series is NLRP3 inflammasome (Homo sapiens, UniProt Q96P20). The conditions noted are these: cited from earlier work.
Sequence of NLRP3 inflammasome (Q96P20 whole entry): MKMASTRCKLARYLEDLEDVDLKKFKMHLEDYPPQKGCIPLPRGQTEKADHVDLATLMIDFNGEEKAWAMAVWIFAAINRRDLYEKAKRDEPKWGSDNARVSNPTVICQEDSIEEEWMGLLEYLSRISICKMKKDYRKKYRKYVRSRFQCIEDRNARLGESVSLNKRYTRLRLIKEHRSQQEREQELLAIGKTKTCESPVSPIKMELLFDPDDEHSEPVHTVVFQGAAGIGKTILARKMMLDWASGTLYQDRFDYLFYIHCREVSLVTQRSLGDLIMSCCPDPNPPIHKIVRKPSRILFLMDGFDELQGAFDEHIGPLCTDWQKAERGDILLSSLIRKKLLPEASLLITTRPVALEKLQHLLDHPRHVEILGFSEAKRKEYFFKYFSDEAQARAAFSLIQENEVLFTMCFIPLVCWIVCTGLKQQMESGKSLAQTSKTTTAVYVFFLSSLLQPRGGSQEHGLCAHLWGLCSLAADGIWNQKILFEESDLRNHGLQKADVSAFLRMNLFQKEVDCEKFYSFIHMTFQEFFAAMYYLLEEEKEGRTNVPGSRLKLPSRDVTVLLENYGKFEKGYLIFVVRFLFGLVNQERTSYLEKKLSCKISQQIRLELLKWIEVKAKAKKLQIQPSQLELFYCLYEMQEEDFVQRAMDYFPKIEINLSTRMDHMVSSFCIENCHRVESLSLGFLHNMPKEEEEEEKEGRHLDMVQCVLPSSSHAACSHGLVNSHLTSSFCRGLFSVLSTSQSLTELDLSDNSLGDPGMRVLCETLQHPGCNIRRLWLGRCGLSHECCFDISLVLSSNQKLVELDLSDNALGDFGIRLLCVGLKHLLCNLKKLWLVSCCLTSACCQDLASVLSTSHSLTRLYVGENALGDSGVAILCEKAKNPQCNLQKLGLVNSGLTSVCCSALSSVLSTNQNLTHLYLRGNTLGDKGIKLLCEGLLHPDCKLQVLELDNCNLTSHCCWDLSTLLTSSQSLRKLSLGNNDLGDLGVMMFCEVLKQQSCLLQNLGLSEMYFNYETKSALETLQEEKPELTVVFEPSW
A further series concerns AIM2 inflammasome. The conditions noted are these: cited from earlier work.
Series [1] can be described thus: Pharmacokinetics of tonabersat after single and multiple dosing, 240 to 400 mg, fasted and fed (MAD and DDI parts). The class given is in vivo, human. Conditions: for AUC(0-inf) / half-life / Tmax: human, in vivo, oral; for AUC(0-inf): 320 mg; for half-life: read-out: geometric mean t1/2; for Tmax: read-out: median tmax. The source says: In some embodiments, a connexin hemichannel modulator (e.g., a connexin 43 hemichannel modulator) is provided in an amount to achieve and/or to maintain a steady state amount over a desired period of time, including some or part of a dosing regimen for use in addressing one or more signs or symptom of a post-acute infection syndrome, disorder, disease or condition. In some embodiments, the connexin hemichannel modulator (e.g., a connexin 43 hemichannel modulator) is a compound according to Formula I. In some embodiments, the connexin hemichannel modulator (e.g., a connexin 43 hemichannel modulator) is a compound according to Formula II. […] There was no evidence of time- or dose-related changes in systemic exposure of tonabersat. For a drug to show no change in its pharmacokinetic behavior on chronic dosing, the steady-state accumulation ratio (Rs) should equal unity. […] After both single and multiple dosing, Cmax and AUC increased with increasing dose in a dose-proportional manner across the dose range studied. […] Therefore, total exposure (extent of absorption) was not affected by food administration, whereas the rate of drug absorption was increased in the presence of food. […] The half-life was not affected by fed conditions.

A short description of series [2]: Pharmacokinetics of tonabersat after single and repeat oral dosing, 40 and 80 mg once daily. Conditions: for half-life: human, plasma. It counts as in vivo, human. From the text:
In some embodiments, a connexin hemichannel modulator (e.g., a connexin 43 hemichannel modulator) is provided in an amount to achieve and/or to maintain a steady state amount over a desired period of time, including some or part of a dosing regimen for use in addressing one or more signs or symptom of a post-acute infection syndrome, disorder, disease or condition. In some embodiments, the connexin hemichannel modulator (e.g., a connexin 43 hemichannel modulator) is a compound according to Formula I. In some embodiments, the connexin hemichannel modulator (e.g., a connexin 43 hemichannel modulator) is a compound according to Formula II.

The AUC(0-inf) is the area under the concentration-time curve extrapolated to infinity. The term Tmax denotes the time at which the peak concentration occurs.

pIC50: −log10 of the molar value. Read-outs that look alike come from different tables or passages of the source. Where a SMILES comes first, the peptide text is derived from it.

Sequence of gap junctions (P08034 whole entry): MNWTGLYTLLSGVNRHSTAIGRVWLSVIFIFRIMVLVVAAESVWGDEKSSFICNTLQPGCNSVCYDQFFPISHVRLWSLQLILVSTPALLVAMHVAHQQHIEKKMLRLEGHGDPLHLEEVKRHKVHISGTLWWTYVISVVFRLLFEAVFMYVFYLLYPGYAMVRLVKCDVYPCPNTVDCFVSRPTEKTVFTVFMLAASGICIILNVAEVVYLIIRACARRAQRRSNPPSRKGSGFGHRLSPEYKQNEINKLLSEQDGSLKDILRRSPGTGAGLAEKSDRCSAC
Sequence of Panx1 channel (Q96RD7 whole entry): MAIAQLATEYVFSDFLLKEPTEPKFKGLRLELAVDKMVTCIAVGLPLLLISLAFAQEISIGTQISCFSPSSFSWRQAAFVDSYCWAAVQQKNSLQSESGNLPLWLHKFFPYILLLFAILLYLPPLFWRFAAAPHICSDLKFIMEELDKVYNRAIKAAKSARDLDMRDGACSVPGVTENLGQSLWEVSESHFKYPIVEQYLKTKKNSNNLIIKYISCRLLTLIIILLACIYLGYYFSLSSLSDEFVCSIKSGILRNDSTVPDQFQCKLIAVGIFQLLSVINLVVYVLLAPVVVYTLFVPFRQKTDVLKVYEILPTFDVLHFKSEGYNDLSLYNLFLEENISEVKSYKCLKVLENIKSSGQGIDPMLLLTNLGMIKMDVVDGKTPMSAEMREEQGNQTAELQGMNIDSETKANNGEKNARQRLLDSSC

Take `CC[C@H](C)[C@H](NC(=O)[C@H](CCC(=O)O)NC(=O)[C@@H](NC(=O)[C@H](CCC(N)=O)NC(=O)[C@@H](N)CCCCN)[C@@H](C)CC)C(=O)N[C@@H](CCCCN)C(=O)N[C@@H](CCCCN)C(=O)N[C@@H](Cc1ccccc1)C(=O)N[C@@H](CCCCN)C(=O)O` [^43Gap19] (H-KQIEIKKFK-OH; N-terminus and C-terminus assumed): on Panx1 channel, the “effect on Panx1 channel activity (selectivity)” value is “does not affect”. The pIC50 with Cx43 hemichannel was 4.33. Further, the “effect on gap junction activity (selectivity)” value at gap junction is recorded as “does not affect”.
On to `CC[C@H](C)[C@H](NC(=O)[C@H](CCC(=O)O)NC(=O)[C@@H](NC(=O)[C@H](CCC(N)=O)NC(=O)[C@H](CCCCN)NC(=O)[C@H](CCCNC(=N)N)NC(=O)[C@H](CCCNC(=N)N)NC(=O)[C@H](CCCNC(=N)N)NC(=O)[C@H](CCC(N)=O)NC(=O)[C@H](CCCNC(=N)N)NC(=O)[C@H](CCCNC(=N)N)NC(=O)[C@H](CCCCN)NC(=O)[C@H](CCCCN)NC(=O)[C@H](CCCNC(=N)N)NC(=O)CNC(=O)[C@@H](N)Cc1ccc(O)cc1)[C@@H](C)CC)C(=O)N[C@@H](CCCCN)C(=O)N[C@@H](CCCCN)C(=O)N[C@@H](Cc1ccccc1)C(=O)N[C@@H](CCCCN)C(=O)O` [TAT-^43Gap19] (H-YGRKKRRQRRRKQIEIKKFK-OH; N-terminus and C-terminus assumed), for which, in the series with Cx43 hemichannel, the pIC50 was 5.15.
On to GHGDPLHLEEVKC [^32Gap24], for which the “effect on gap junctions” value in the series with gap junctions was “without affecting”.
As for `CC(C)C[C@H](NC(=O)[C@H](Cc1ccccc1)NC(=O)c1c(F)cccc1F)B(O)O` [NIC-102, ((R)-1-((S)-2-(2,6-difluorobenzamido)-3-phenylpropanamido)-3-methylbutyl)boronic acid], the “effect on NLRC4 inflammasome” value in the series with NLRC4 inflammasome was “no effect”. For the same compound, the “effect on NLRP3 inflammasome activation” value at NLRP3 inflammasome is reported as “specifically prevents”. The “effect on AIM2 inflammasome” value with AIM2 inflammasome is “no effect”.
Turning to `CC(=O)c1ccc2c(c1)[C@H](NC(=O)c1ccc(F)c(Cl)c1)[C@H](O)C(C)(C)O2` [tonabersat, N-[(3S,4S)-6-acetyl-3-hydroxy-2,2-dimethyl-3,4-dihydrochromen-4-yl]-3-chloro-4-fluorobenzamide], the “half-life, effect of fed conditions” value in [1] (fed vs fasted) was “not affected”. The “rate of drug absorption in the presence of food” value in series [1] (fed vs fasted) is reported as “increased”. Moreover, the “total exposure (extent of absorption), effect of food administration” value in series [1] (fed vs fasted) is given as “not affected”. In addition, the AUC(0-inf) was 285 µg·h/mL in series [1] (single dose 320 mg fasted) and 296 µg·h/mL in series [1] (single dose 320 mg fed). The half-life in series [1] (after multiple dosing, Day 14) is 37.5 to 41.6 h; in [1] (after single dosing), 28.9 to 37.8 h; in series [2] (oral, read-out: elimination half-life), 24 to 36 h; in [2] (oral, read-out: mean half-life (converted)), ~25 h; in series [2] (po, single and repeat oral dosing, read-out: terminal elimination phase T1/2), 24 to 33 h. The time to peak (Tmax) was 16 h in series [1] (single dose 240 mg, fasted); 10.5 h in [1] (single dose 320 mg, fasted); 3 to 4 h in [1] (single or multiple dosing 240 mg to 400 mg, fed (light, medium or fed)). Besides, the “accumulation of Cmax and AUC” value in series [1] (multiple dosing 13 to 14 consecutive days, Days 13 or 14 compared to Day 1) is given as “approximately 3 fold”. The “Cmax and AUC increase with increasing dose” value in series [1] (single and multiple dosing, across the dose range studied) was “dose-proportional”. The “dose proportionality of pharmacokinetics (dose-normalized Cmax and AUC(0-t))” value in series [2] (between 40 and 80 mg once daily, single or multiple doses) was “approximately dose proportional”. Moreover, the “time tonabersat generally quantifiable in the plasma post-dose” value in series [2] (single and repeat oral dosing) is on record as “at least 96 hours”. For the same compound, the “time- or dose-related changes in systemic exposure” value in series [2] (single and repeat oral dosing) is on record as “no evidence”.
